# Measured values: US12697343B2, “Intravenous istaroxime for the treatment of acute heart failure” (Seismic Pharmaceuticals Operations LLC, priority 2021, dated 2026)
# Structures can show the parent of a compound that is named as a salt.
# How the values were obtained:
# [1] = system: patients hospitalized for acute heart failure (AHF); test: NT-proBNP serial measurements (Elecsys proBNP II); assay type: in vivo, human
# Procedure: (§1) The primary efficacy endpoint was the change from baseline to 24 h after the start of the infusion in the E/e ratio assessed by tissue Doppler echocardiography. Secondary endpoints included the change from baseline to 24 h of other echocardiography parameters: LVEF, left ventricular end-systolic and end-diastolic volumes, stroke volume index, E, A, E/A ratio, and S′: changes in dyspnoea by visual analogue scale (VAS) and in NT-proBNP from baseline to 24 h: proportion of patients with hospital readmissions or emergency visits for cardiovascular reasons by day 30; proportion of patients with episodes of in-hospital worsening heart failure to day 4, and length of stay. In-hospital worsening heart failure was defined by the need to increase the dose or reinitiate intravenous therapy with diuretics and/or other inotropic agents to day 4. Safety endpoints were assessed throughout the study and included: incidence of adverse events (AEs): change in vital signs and in 12-lead electrocardiographic (ECG) parameters: incidence of clinically or haemodynamically significant episodes of supraventricular or ventricular arrhythmias detected by continuous ECG monitoring: standard laboratory parameters: renal function: cardiac troponin T (cTnT): incidence of cTnT elevations, and mortality at day 30. Elevations in cTnT were considered significant if they were >50% or >20% from baseline values, for patients with cTnT below or above the 99% upper reference limit at baseline, respectively.
# (§2) The study design included a 24 h screening period, a 24 h study drug infusion phase (day 1), a post-treatment phase (days 2-4), and a follow-up visit at day 30 (FIG. 5). Patients could be enrolled at any time after admission. The use of oral medications was permitted during the study with the exception of digoxin. Intravenous diuretics were permitted during the treatment period at stable doses, unless changes were required due to clinically relevant variations of the patient's condition. If treatment with an inotrope was clinically necessary during the infusion period, the investigational product was discontinued. Echocardiography was performed according to international standards at screening, baseline (just before starting study drug infusion), 6, 24 h (just before infusion end), and 48 h after infusion start. Echocardiographic measurements at baseline, 6, 24, and 48 h were evaluated in a blinded fashion by a CoreLab located at the University and Civil Hospital of Brescia, Italy. E/e′ ratio was calculated as the ratio between the peak early diastolic mitral flow velocity (E wave) and the mean of the annular lateral (e′ lateral) and septal (e′ septal) velocities, according to standard guidelines.^20 Intraobserver and interobserver variability in E/e′ measurement was tested on the 15% of the recordings and is shown in FIG. 6. Self-reported dyspnoea was assessed using a 100 mm VAS, with zero representing the worst level of dyspnoea and […] the best breathing condition. Twenty-four hour ECG monitoring was performed using a three-lead device (Mortara industries, Milwaukee, WI, USA) during the day of screening, the infusion period, and the day after (the latter was optional). Analysis was conducted by a blinded CoreLab (ICS Maugeri, Italy). Serial measurements of NT-proBNP throughout the study were analyzed by a central laboratory (Elecsys® proBNP II, Roche®, Basel, Switzerland). Samples for cTnT were taken at baseline, 3, 6, 12, 24, 48, and 72 h and on day 30, and were analyzed by a core laboratory (Elecsys® high-sensitivity assay, Roche®, Basel, Switzerland). AEs were monitored throughout the duration of the study.
# The study was designed as a mechanistic and safety study to assess the effects of a 24 h istaroxime infusion in patients hospitalized for AHF. […]
# [2] = system: patients hospitalized for acute heart failure (AHF); test: Adverse events, serious adverse events, laboratory safety and mortality to day 30; assay type: in vivo, human
# Procedure: as §1
# as §2, with “Twenty-four hour ECG monitoring was performed using a three-lead device (Mortara industries, Milwaukee, WI, USA) during the day of screening, the infusion period, and the day after (the latter was optional). Analysis was conducted by a blinded CoreLab (ICS Maugeri, Italy).” left out, “study. […]” for “study.”
# [3] = istaroxime 1.0 μg/Kg/min (n = 40), 30-day follow-up period
compound,measurement,setting,value
"C[C@]12CCC(=NOCCN)C[C@@H]1C(=O)C[C@@H]1[C@@H]2CC[C@]2(C)C(=O)CC[C@@H]12 [Istaroxime, (E,Z)-3-((2-aminoethoxy)imino)androstane-6,17-dione hydrochloride]","NT-proBNP, median change from baseline","[1]; 0.5 μg/Kg/min, 24 hours",120 pg/mL
same,"NT-proBNP, median change from baseline","[1]; 0.5 μg/Kg/min, 48 hours",-431 pg/mL
same,"NT-proBNP, median change from baseline","[1]; 0.5 μg/Kg/min, 72 hours",-802 pg/mL
same,"NT-proBNP, median change from baseline","[1]; 1.0 μg/Kg/min, 24 hours",-214 pg/mL
same,"NT-proBNP, median change from baseline","[1]; 1.0 μg/Kg/min, 48 hours",-563 pg/mL
same,"NT-proBNP, median change from baseline","[1]; 1.0 μg/Kg/min, 72 hours",-528 pg/mL
same,Mortality within the 30-day study period,"[2]; 1.0 μg/kg/min group, cardiogenic shock",One patient died
same,rate of SAEs,[2]; in vivo,did not show meaningful differences
same,rate of injection site reactions,"[2]; in vivo, iv",high
same,Serious adverse events: Cardiac death,[2]; [3],1 number of patients
same,"Serious adverse events: Cardiac death, percent of patients",[2]; [3],(2.5) %
